# Results from patent US20170307640A1, “METHODS, KITS AND DEVICES FOR DETECTING BII-SPECTRIN, AND BREAKDOWN PRODUCTS THEREOF, AS BIOMARKERS FOR THE DIAGNOSIS OF NEURAL INJURY” (BANYAN BIOMARKERS, INC., priority 2012, published 2017).
# Entries after “also recorded” stand apart in the source; their conditions may differ.
# Experiments:
# [1] = test system: βII-spectrin; assay: Effects of calpain and caspase-3 inhibitors on βII-SBDP pattern in challenged cerebrocortical cultures (Western blot); assay type: cell-based, rat; conditions: for βII-SBDP bands after MTX challenge with inhibitor: 0.5 nM MTX 3 hrs + 20 μM IDN-6556 or 30 μM SNJ-1945; for βII-SBDP bands after NMDA challenge with inhibitor: 300 μM NMDA + 20 μM IDN-6556 or 30 μM SNJ-1945; for βII-SBDP bands after EDTA challenge with inhibitor: EDTA + 20 μM IDN-6556 or 30 μM SNJ-1945, pretreated 1 hr
# Description: (§1) All cultures are prepared in quadruplicate. Cerebrocortical cells harvested from 1-day old Sprague-Dawley rat brains are plated on poly-L-lysine coated 6-well culture plates (Erie Scientific, Portsmouth, N.H., USA) according to a previously cited method (Nath et al., 2000) at a density of 4.36×10^5 cells/mL. Cultures are maintained in Dulbecco's modified Eagle's medium (DMEM) with 10% fetal bovine serum in a humidified incubator in an atmosphere of 10% CO2 at 37° C. After 5 days in culture, the media is changed to DMEM with 5% horse serum. Subsequent media changes are performed three times a week. Experiments are performed on days 10 to 11 in vitro when astroglia have formed a confluent monolayer beneath morphologically mature neurons. All animal studies conform to the guidelines outlined in the Guide for the Care and Use of Laboratory Animals from the National Institutes of Health and were approved by the local IACUC.
# (§2) Cells are collected and lysed with the same lysis buffer as described above.
# (§3) The neuronal lysates are then centrifuged at 15000 g for 5 min at 4° C. to clear and remove insoluble debris, snap-frozen, and stored at −85° C. until use.
# (§4) Protein concentrations of culture lysates are determined by bicinchoninic acid microprotein assays (Pierce Inc, Rockford, Ill., USA) with albumin standards. Protein balanced samples are prepared for sodium dodecyl sulfate-polyacrylamide gel electrophoresis (SDS-PAGE) in […] loading buffer containing 0.25 M Tris (pH 6.8), 0.2 M DTT, 8% SDS, 0.02% bromophenol blue, and 20% glycerol in distilled H2O. Twenty micrograms (20 μg) of protein per lane are routinely resolved by SDS-PAGE on 6% Tris/glycine gels (for spectrin protein) and/or 10-20% Tris/glycine gels for 2 hr at 120 V. Following electrophoresis, separated proteins are laterally transferred to polyvinylidene fluoride (PVDF) membranes in a transfer buffer containing 0.50 M glycine, 0.025 M Tris-HC1 (pH 8.3) and 10% methanol at a constant voltage of 20 V for 2 hr at 4° C. in a semi-dry transfer unit (Bio-Rad, Hercules, Calif.).
# (§5) Tissue samples (20 μg) are subjected to electrophoresis, equal volumes of samples for SDS/PAGE are prepared in a 2×-fold loading buffer [0.25 M Tris (pH 6.8), 0.2 M DTT, 8% SDS, 0.02% bromophenol blue and 20% glycerol in distilled H2O]. Gels are run at 120 V for 2 hr in a mini-gel unit (Invitrogen Life). Protein bands are transferred to PVDF membrane on a semi-dry Trans-blot unit (Bio-Rad, Hercules, Calif.) at 20 V for 2 hrs. After electrotransfer, blotting membranes are blocked for 1 hr at ambient temperature in 5% non-fat milk in TBST [20 mM Tris/HCl (pH 7.4), 150 mM NaCl and 0.05% (w/v) Tween-20], then incubated with the primary monoclonal antibody in TBST/5% milk. Primary antibodies to be used include mouse anti all-spectrin (Affinity Res. Prod. Nottingham, UK), mouse monoclonal anti βII-spectrin (BD Transduction Laboratories, USA; cat # 612563) and rabbit anti βIII-spectrin (BETHYL Laboratories, Inc. TX, cat # A310-367A). The blots are then washed 3 times for 15 min with TBST and exposed to biotinylated secondary antibodies (Amersham Biosciences, U.K.) followed by a 30 min incubation with streptavidin-conjugated alkaline phosphatase. Colorimetric development is performed with a one-step 5-bromo-4-chloro-3-indolyl phosphate-reagent (Sigma-Aldrich, St. Louis, Mo.). The molecular weights of intact proteins and their potential BDPs are assessed by running along-side rainbow colored molecular weight standards (Amersham Biosciences, U.K.)
# (§6) Rat cerebrocortical cell cultures are prepared as described above and treated with calpain inhibitor SNJ-1945 and caspase-3 inhibitor IDN-6556 along with different neurotoxic paradigms (FIG. 3).
# [2] = test system: αII-spectrin; assay: αII-spectrin breakdown pattern in challenged cerebrocortical cultures with or without inhibitors (Western blot); assay type: cell-based, rat; conditions: for αII-spectrin fragments (SBDP-150/SBDP-145, SBDP-120) after NMDA challenge with respective protease inhibitor: 300 μM NMDA + 30 μM SNJ-1945 or 20 μM IDN-6556; for αII-spectrin breakdown products after neurotoxin challenge alone: EDTA, MTX or NMDA alone
# Description: as §1, §2, §3, §4, §5, §6
# [3] = test system: rat cerebrocortical cultures; assay: Neurotoxin challenges of primary cerebrocortical cultures: morphology and βII-spectrin breakdown by Western blot; assay type: cell-based; conditions: for degeneration in soma and neurites of neuronal cultures under microscope: MTX at 3 hours, STS, EDTA, NMDA at 24 hours, vs untreated control; for βII-SBDP bands after neurotoxin challenge alone (Western blot): NMDA 300 μM, STS 0.5 μM, EDTA 2 mM, MTX 0.5 nM 3 hrs, no inhibitor
# Description: as §1, §2, §3, §4, §5
# Alternatively, neuronal cultures are treated with staurosporine (STS) for 24 hours or with NMDA. (FIG. 2)
# [4] = test system: βII-spectrin; assay: βII-spectrin proteolytic fragmentation after brain cortex lysate digestion with calpain-2 and caspase-3; assay type: biochemical, rat
# Description: as §5, with “Colorimetric development is performed with a one-step 5-bromo-4-chloro-3-indolyl phosphate-reagent (Sigma-Aldrich, St. Louis, Mo.).” left out
Molecule,βII-SBDP bands after MTX challenge with inhibitor [1],βII-SBDP bands after NMDA challenge with inhibitor [1],βII-SBDP bands after EDTA challenge with inhibitor [1],"αII-spectrin fragments (SBDP-150/SBDP-145, SBDP-120) after NMDA challenge with respective protease inhibitor [2]",degeneration in soma and neurites of neuronal cultures under microscope [3],βII-SBDP bands after neurotoxin challenge alone (Western blot) [3],αII-spectrin breakdown products after neurotoxin challenge alone [2],other results
C[C@H](NC(=O)C(=O)Nc1ccccc1C(C)(C)C)C(=O)N[C@@H](CC(=O)O)C(=O)COc1c(F)c(F)cc(F)c1F [IDN-6556],βII-SBDPs of 110 kDa and 85 kDa are observed,much weaker,no βII-SBDPs,strongly inhibited,,,,αII-spectrin caspase-mediated SBDP-120 after EDTA challenge with inhibitor ([2]; EDTA + IDN-6556): absence
"C=CC[C@H](C)[C@H](C)C[C@@H](O)[C@H](O)[C@@H]1CC[C@@]2(C)O[C@@]3(C)C[C@@]4(C)O[C@H]5/C=C\C[C@H]6O[C@H]7C[C@H]8O[C@H]9C[C@@]%10(C)O[C@@](C)([C@@H]%11CC[C@H]%12O[C@@]%13(C)C[C@H]%14O[C@@]%15(C)C[C@H]%16O[C@@]%17(C)C[C@@H](O)[C@H]([C@@H]%18O[C@H]%19[C@H](O)[C@@H](O)[C@H](C[C@H](O)C[C@@H](O)[C@@H]%20O[C@H]%21[C@H](O)[C@@H](O)[C@H]([C@@H]%22O[C@@H]%23[C@H](O)[C@H]%24O[C@H]%25C[C@H]%26O[C@@H](C[C@H](O)[C@@H](O)[C@H]%27O[C@H]%28[C@H](O)[C@H]%29O[C@H]%30C[C@H]%31O[C@H]%32[C@@H](O)[C@@H](O)[C@H]([C@H](C)[C@H](O)[C@H](C)CC[C@H](OS(=O)(=O)O)[C@H](O)[C@H](C)C[C@@H](O)C(=C)/C(C)=C/CO)O[C@@H]%32[C@H](O)C[C@]%31(C)O[C@@H]%30C[C@]%29(C)O[C@@H]%28C[C@H]%27O)[C@H](OS(=O)(=O)O)[C@H](O)[C@@H]%26O[C@@H]%25C[C@@H]%24O[C@H]%23[C@H](O)[C@H]%22O)O[C@H]%21C[C@H]%20O)O[C@H]%19C[C@H]%18O)O[C@@H]%17[C@H](O)[C@]%16(C)O[C@@H]%15CC[C@]%14(C)O[C@@H]%13C[C@@H]%12O%11)[C@H](O)C[C@@H]%10O[C@]9(C)CC[C@]8(C)O[C@]7(C)C[C@@H]6O[C@@H]5C[C@@H]4O[C@@H]3C[C@@H]2O1 [MTX, maitotoxin]",,,,,significant degeneration,strong βII-SBDPs of 110 kDa and 85 kDa bands; also recorded: βII-SBDPs of 110 kDa and 85 kDa are observed,presence of the prominent calpain-mediated SBDP-145 kDa band,"βII-SBDPs generated by EDTA and MTX treatments used as controls for apoptotic and necrotic injury ([4]; brain lysates treated with MTX and EDTA, comparators in FIG. 8): 110/85"
"CN[C@H](CC(=O)O)C(=O)O [NMDA, N-methyl-D-aspartate]",,,,,significant degeneration,"dominant signal of calpain-mediated βII-spectrin breakdown product (βII-SBDP) of 110 kDa and 85 kDa, with minimal caspase mediated βII-SBDP of 108 kDa and 80 kDa; also recorded: presence of all the βII-SBDPs (110, 108, 85 and 80 kDa)","prominent calpain-mediated SBDP-150/SBDP-145, with minor bands of caspase-3-mediated SBDP-120",
COCCOCCOC(=O)N[C@@H](CC(C)C)C(=O)N[C@@H](Cc1ccccc1)C(=O)C(=O)NC1CC1 [SNJ-1945],no βII-SBDPs observed,only βII-SBDP-108 kDa band,strong βII-SBDP 108 kDa/weak 80 kDa bands,strongly inhibited,,,,αII-spectrin calpain-mediated SBDP-145 after MTX challenge with inhibitor ([2]; MTX + SNJ-1945): absence
"CN[C@@H]1C[C@H]2O[C@@](C)([C@@H]1OC)n1c3ccccc3c3c4c(c5c6ccccc6n2c5c31)C(=O)NC4 [STS, staurosporine]",,,,,significant degeneration,two prominent βII-SBDP bands of 108 kDa and 80 kDa,,
"Calpain: purified protease human calpain-2 (BD Bioscience; Catalogue no. 208715) (protein, UniProt P17655 20-700, looked up) Calpain-2 catalytic subunit: SHDRAIKYLNQDYEALRNECLEAGTLFQDPSFPAIPSALGFKELGPYSSKTRGIEWKRPTEICADPQFIIGGATRTDICQGALGDCWLLAAIASLTLNEEILARVVPLNQSFQENYAGIFHFQFWQYGEWVEVVVDDRLPTKDGELLFVHSAEGSEFWSALLEKAYAKINGCYEALSGGATTEGFEDFTGGIAEWYELKKPPPNLFKIIQKALQKGSLLGCSIDITSAADSEAITFQKLVKGHAYSVTGAEEVESNGSLQKLIRIRNPWGEVEWTGRWNDNCPSWNTIDPEERERLTRRHEDGEFWMSFSDFLRHYSRLEICNLTPDTLTSDTYKKWKLTKMDGNWRRGSTAGGCRNYPNTFWMNPQYLIKLEEEDEDEEDGESGCTFLVGLIQKHRRRQRKMGEDMHTIGFGIYEVPEELSGQTNIHLSKNFFLTNRARERSDTFINLREVLNRFKLPPGEYILVPSTFEPNKDGDFCIRVFSEKKADYQAVDDEIEANLEEFDISEDDIDDGFRRLFAQLAGEDAEISAFELQTILRRVLAKRQDIKSDGFSIETCKIMVDMLDSDGSGKLGLKEFYILWTKIQKYQKIYREIDVDRSGTMNSYEMRKALEEAGFKMPCQLHQVIVARFADDQLIIDFDNFVRCLVRLETLFKIFKQLDPENTGTIELDLISWLCFSVL",,,,,,,,"βII-SBDPs generated by in vitro protease digestion of cortical tissue lysate ([4]; intact 260 kDa βII-spectrin, calpain-2 25° C. 30 min, caspase-3 37° C. 4 hrs): prominent 110 and 85 kDa βII-SBDPs in addition to a number of non-specific high molecular bands"
